“And” between values parts separate entries of the source, which are not always exact repeats. Equal entries are not always repeated.

Assay [1] deals with β-arrestin2 recruitment to B2R. Nature of the assay: BRET recruitment of β-arrestin2 to B2R. The assay is classed as cell-based, human. The procedure: HEK293SL cells were seeded at a density of 7.5 × 10^5 cells per 100-mm dish and 24 h later, transiently transfected as such. For receptor internalization experiments, cells were transfected with 0.12 μg AT1R-RlucII, B2R-RlucII, or β2AR-RlucII and 0.48 μg of either rGFP-CAAX (to assess removal from the PM) or rGFP-FYVE (to assess accumulation in the endosomes). For β-arrestin recruitment assays, cells were transfected with 0.48 μg of receptor-YFP along with 0.12 μg of β-arrestin-RlucII. For β-arrestin/AP-2 binding experiments, cells were transfected with 1 μg Flag-AT1R, 1 μg β2-Adaptin-YFP, and 0.12 μg β-arrestin2-RlucII. For G protein activation, cells were transfected with 3 μg of sp-Flag-AT1R along with either 4.5 μg of the Gαq-polycistronic BRET sensor or 0.24 μg of the Gαi3-RlucII and 0.6 μg of GFP10-Gγ2 and Gβ1 sensors or 0.12 μg PKN-RBD-RlucII and 0.48 μg of rGFP-CAAX. For PKC activation, cells were transfected with 3 μg of sp-Flag-AT1R and 0.18 μg of the PKC sensor. For GTPase activation experiments, cells were transfected with 1 μg Flag-AT1R, 0.48 μg of rGFP-CAAX, and either 0.12 μg of GGA3-PBD-RlucII, PAK-CRIB-RlucII or Raf-RBD-RlucII. For biosensor validation experiments, cells were additionally transfected with 500 ng Flag-K-Ras-WT, Flag-K-Ras-G12V, Flag-K-Ras-SOS-CAAX, HA-ARF6-WT, HA-ARF6-T27N, Myc-Rac1-WT, Myc-Rac1-Q61L or Myc-Rac1-T17N. For PI3K/Akt activation experiments, cells were transfected with 0.48 μg of rGFP-CAAX and 0.12 μg of Akt (PH)-RlucII. After 18 h of transfection, the media was replaced and cells were divided for subsequent experiments. Cells were detached and seeded onto poly-L-ornithine-coated 96-well flat white bottom plates (BrandTech Scientific) at a density of 2.5 × 10^4 cells per well in media. The next day, cells were washed once with Tyrode’s buffer (140 mM NaCl, 2.7 mM KCl, 1 mM CaCl2, 12 mM NaHCO3, 5.6 mM D-glucose, 0.5 mM MgCl2, 0.37 mM NaH2PO4, 25 mM HEPES, pH 7.4) and left in Tyrode’s buffer. For kinetics of β-arrestin recruitment or β-arrestin binding to receptor and AP-2 experiments, cells were serum starved for 30 min, pretreated with 21 (50 µM) or Barbadin (100 µM) for 30 min, stimulated with 100 nM AngII or 1 µM BK and BRET signals were monitored at indicated times using a Victor X Light plate reader (PerkinElmer). Coelenterazine H (final concentration of 5 µM) was added 3–5 min prior to BRET measurements. Filter set was 460/80 nm and 535/30 nm for detecting the RlucII Renilla luciferase (donor) and YFP (acceptor) light emissions, respectively. The BRET ratio was determined by calculating the ratio of the light emitted by YFP over the light emitted by the RlucII. For G protein activation, cells were serum starved, pretreated with compounds for 30 min, stimulated with 100 nM AngII for 2 min (Gαq, Gαi3, and Rho sensors) or 5 min (PKC sensor). For the kinetics of GTPase and PI3K/Akt activation, cells were serum starved, pretreated with 21 (50 µM) or Wortmannin (200 nM) for 30 min, stimulated with ligand (100 nM AngII or 100 ng/ml EGF) and BRET signals were monitored at indicated times. For concentration-response curves, cells were serum-starved, pretreated with various concentrations of compounds for 30 min and stimulated with ligand (100 nM AngII, 1 µM BK, 10 µM Isoproterenol (Iso) or 100 ng/ml EGF) in Tyrode’s buffer for 30 min for receptor internalization, 10 min for ARF6, 2 min for Rac and Rho activation and 5 min for Ras activation and PI3K/Akt activation. BRET signals were monitored using a Synergy2 (BioTek) microplate reader and coelenterazine 400a (final concentrations of 5 µM) added 3–5 min prior to BRET measurements. Filter set was 410/80 nm and 515/30 nm for detecting the RlucII Renilla luciferase (donor) and rGFP/GFP10 (acceptor) light emissions, respectively. The BRET ratio was determined by calculating the ratio of the light emitted by rGFP/GFP10 over the light emitted by the RlucII.

Assay [2] has as its system ERK1/2 activation by AT1R. Nature of the assay: Western blot of AT1R-mediated ERK1/2 activation in Gαq/11 KO cells (with or without β-arrestin2). The conditions noted are these: for ERK1/2 activation by AT1R in cells lacking Gαq/11, supplemented or not with β-arrestin: 50 μM. The assay is classed as cell-based, human. The method, then:
HEK293SL cells (10^5 cells per well) were seeded in a poly-L-lysine-coated six-well plate and transiently transfected with 3 μg Flag-AT1R, HA-B2R or HA-β2AR and/or 500 ng Flag-MEK1-WT, Flag-MEK1-DD, Flag-BRAF-WT, Flag-BRAF-V600E, Flag-K-Ras-WT, Flag-K-Ras-G12V, HA-ARF6-WT, or HA-ARF6-T27N. Gαq/11 KO and βarr1/2 KO cells were seeded onto 100 mm dishes at a density of 10^6 cells per dish. Next day, cells were transfected with 3 μg AT1R alone or along with 500 ng of β-arrestin2 using PEI. After 18 h of transfection, cells were detached and re-seeded onto poly-L-lysine coated 12-well plates (~1.5–2 × 10^5cells/well) for subsequent experiments. Forty-eight hours post transfection, in a 37 °C water bath, cells were serum-starved for 30 min, pretreated with DMSO (0.1%) or compound 21/Rasarfin (50 µM or at indicated concentrations) for 30 min, then stimulated or not with the indicated ligand [AngII (1 µM), BK (1 µM), Iso (10 µM) or EGF (100 ng/ml)] at indicated times. Cells were put on ice, washed with PBS and solubilized in 2x laemmli buffer (250 mM Tris–HCl pH 6.8, 2% SDS (w/v), 10% glycerol (v/v), 0.01% bromophenol blue (w/v) and 5% β-mercaptoethanol (v/v)) by heating at 65 °C for 15 min. Lysates were resolved on 10 or 14% SDS-PAGE, transferred to nitrocellulose membranes and immunoblotted for p-ERK1/2, ERK1/2, p-Akt, Akt, HA, Myc, β-actin or FLAG. ImageLab 5.2 software was used to quantify the digital blots as fold of the phosphorylated protein over total protein, which were then normalized as indicated in the figure legends. Uncropped immunoblots are provided in the Source Data file.
Background: A western blot detects proteins with antibodies after separation by electrophoresis.

Where [3] appears, read: Gq/11 KO cells + barr2, Time 0 min.

Regarding `CC(C)C(=O)N1CCN(c2ccc(NC(=O)c3cc4ccccc4o3)cc2Cl)CC1` [Compound 21], in assay [1] (50 μM), the “β-arrestin2 recruitment to B2R at the PM” value is “did not preclude”. Also, the “BK-promoted BRET, Barr2” value in assay [1] (Time 0 min) is 0; in assay [1] (Time 5 min, listed as Comp 21), 0.1301 and 0.1897 and 0.1572; in assay [1] (Time 10 min, listed as Comp 21), 0.1662 and 0.2107 and 0.2145; in assay [1] (Time 15 min, listed as Comp 21), 0.1989 and 0.1955 and 0.2222; in assay [1] (Time 30 min, listed as Comp 21), 0.2065 and 0.1814 and 0.2273; in assay [1] (Time 60 min, listed as Comp 21), 0.2055 and 0.169 and 0.2219. Further, the figures for the “ERK1/2 activation by AT1R in cells lacking Gαq/11, supplemented or not with β-arrestin” value in assay [2] and in assay [2] (listed as Rasarfin) were “efficiently inhibited ERK1/2 activation” and “totally blocked”, respectively. Also, the “ERK1/2 activation relative to time 0 (S_Fig.4a)” value was 1 in assay [2] (setting [3]); 1 in assay [2] (Gq/11 KO cells, Time 0 min); 0.6393 and 0.9475 and 0.8926 and 0.5297 in assay [2] (Gq/11 KO cells, Time 5 min, listed as Comp 21). Besides, the “Predicted (LS) mean diff. DMSO - Comp 21 (Bonferroni's multiple comparisons test)” value in assay [2] (setting [3]) is recorded as 0; in assay [2] (Gq/11 KO cells + barr2, Time 5 min), 5.112; in assay [2] (Gq/11 KO cells + barr2, Time 20 min), 2.869. Also, the “Mean Diff. DMSO - Comp 21 (Bonferroni's multiple comparisons test)” value in assay [2] (Gq/11 KO cells, Time 0 min) came out at 0; in assay [2] (Gq/11 KO cells, Time 5 min), 14.92; in assay [2] (Gq/11 KO cells, Time 20 min), 7.116.

The values above are taken from PMC8333425, “Discovery of a dual Ras and ARF6 inhibitor from a GPCR endocytosis screen” (Nature Communications, 2021).
